Assay results taken from US9738669B2, “Pentaaza macrocyclic ring complexes possessing oral bioavailability” (Galera Labs, LLC, priority 2015, dated 2017).
Values belong to the molecule of their own block, whether it stands above or below them.

What was measured:
[1] = tested on: lethal total body irradiation of adult mice; settings: ip; cited from earlier work
[2] = tested on: rats subjected to an experimental model of colitis; settings: ip injection; cited from earlier work
[3] = tested on: rat model of collagen-induced arthritis; settings: ip; cited from earlier work
[4] = tested on: rat model of inflammation; settings: ip; cited from earlier work
[5] = Intraduodenal (id) bioavailability screen in minipigs, plasma level of parent Mn complex by HPLC/MS/MS; assay type: in vivo, Gottingen minipig; settings: id 10 mg/kg, vs 1 mg/kg iv parent chloro complex, AUC0→24 h
Description: Compounds were screened for oral bioavailability by injecting the formulated prodrugs directly into the duodenum (intraduodenal or id administration) of the minipig test subjects, thus bypassing the acidic environment of the stomach and thereby eliminating potentially misleading oral bioavailability results that could arise from alteration of the test article drug in the acid environment of the stomach.
The studies were conducted at Xenometrics LLC (Stillwell, Kans.) and the id bioavailability was determined using various axial ligand derivative complexes of GC4419, GC4444, GC4403 and GC4401.
Male Gottingen minipigs (4-5 mo old, 9-12 kg weight) were purchased from Marshall BioResources and housed at Xenometrics. […] The distal end was exteriorized with a reusable accessible hub (see surgical details below). During a recovery period of at least 2 weeks the minipigs were handled daily to acclimate them to the test procedures, i.e., id dosing and blood collections. For each experiment, each minipig received a test article drug dissolved or suspended in an excipient vehicle. […] All dosing experiments were conducted in fasted animals. Food was withdrawn from the minipigs 16 hours before dosing. The minipigs had ad libitum access to water. Dosed minipigs were allowed access to food 6 hour after dosing. The test article was administered at a dose of 10 mg/kg parent drug in 0.1 mL/kg vehicle (e.g., 1.5 mL in 15 kg minipig) as a bolus injection (˜1 minute) via the id cannula. The actual amount of total test article drug administered varied with the formula weight of the prodrug. An equal volume of excipient vehicle was used to flush the cannula after the test article was administered. Approximately 6 hours later, corn oil was used to flush the cannula. After approximately 24 hours post-dose, the catheter was flushed with sterile saline solution and capped. At the following time-points 0.25, 0.5, 1, 2, 4, 8, 24 and 48 hour post-injection, 2 mL blood samples were collected by cranial vena cava puncture (4 mL Sodium heparin Vacutainer, 20 g 1.5″ needle) after the skin surface was wiped with ethanol. The minipig was placed in a sling in a recumbent position without anesthesia for the collection of blood samples. The minipigs were never used more than once per 7 days for experimentation. The blood samples were kept on ice until processed for plasma. Blood samples were centrifuged at 1200×g for ten minutes at 4° C. and plasma samples were transferred to 96 well plate tubes, capped and stored at −20° C. until shipment on dry ice to the analytical laboratory used for measuring the concentration of drug in the plasma. The concentration of the parent manganese pentaaza macrocylic ring complex (independent of the composition of the axial ligands) was measured in plasma using a validated HPLC/MS/MS method that is linear between 50 ng/mL and 20,000 ng/mL.
The oils used for preparing the dosing solutions were used as supplied from commercial sources. The Capmul MCM (NF) is a mixture of mono/diglycerides of caprylic/capric acids and was supplied by ABITEC Corporation, Janesville, Wis. The Miglyol 812 N is a mixture of caprylic/capric acid triglycerides and was supplied by Cremer Oleo Division, Eatontown, N.J. Labrafil M 2125 CS (NF) is chemically defined to be linoleoyl polyoxyl-6 glycerides NF and was supplied by Gattefosse, SAINT-PRIEST Cedex, France. Peceol is chemically defined to be the monoglyceride, glyceryl monooleate NF, and was supplied by Gattefosse, SAINT-PRIEST Cedex, France. Maisine 35-1 is chemically defined to be the monoglyceride glyceryl monolinoleate (NF) and was supplied by Gattefosse, SAINT-PRIEST Cedex, France. Labrasol (NF) is chemically defined to be caprylocaproyl polyoxyl-8 glycerides NF and was supplied by Gattefosse, SAINT-PRIEST Cedex, France. Labrafil M 1944 CS is chemically defined to be oleoyl polyoxyl-6 glycerides (NF), and is available from Gattefosse, SAINT-PRIEST Cedex, France. […]

[6] = tested on: hamster model of acute, radiation-induced oral mucositis; settings: ip; cited from earlier work
[7] = tested on: VEGFr inhibitor-induced pulmonary disease; settings: ip, rat model; cited from earlier work
Solubility in water = assay type: physicochemical
[8] = tested on: oral mucositis in head-and-neck cancer patients; settings: intravenous (iv) infusion, head-and-neck cancer patients undergoing chemoradiation therapy; cited from earlier work
[9] = base oil Capmul MCM, 10% by weight
[10] = base oil Miglyol 812N, 10% by weight

Molecule: [Cl-].[Cl-].[Mn+2].c1cc2nc(c1)CN[C@@H]1CCCC[C@H]1NCCN[C@@H]1CCCC[C@H]1NC2 [GC4403]
radiation damage [1]: attenuate the radiation damage | injury to the colon [2]: significantly reduce the injury to the colon | joint disease [3]: prevent joint disease | inflammation [4]: inhibit inflammation | Mini-Pig BioA [5, 9]: 9% | radiation damage [6]: attenuate the radiation damage

Molecule: Manganese(II)bis-racemic-phenylglycinato[2S,21S-Dimethyl(4aR,13aR,17aR,21aR)-1,2,3,4,4a,5,6,12,13,13a,14,15,16,17,17a,18,19,20,21,21a-Eicosahydro-11,7-nitrilo-7H-dibenzo[b,h][1,4,7,10]tetraazacycloheptadecine-κN5,κN13,κN18,κN21,κN22]- [GC4715]
Mini-Pig BioA [5, 9]: 36%

Molecule: Manganese(II)bis-racemic-phenylglycinato[6R-Methyl(4aR,13aR,17aR,21aR)-1,2,3,4,4a,5,6,12,13,13a,14,15,16,17,17a,18,19,20,21,21a-Eicosahydro-11,7-nitrilo-7H-dibenzo[b,h][1,4,7,10]tetraazacycloheptadecine-κN5,κN13,κN18,κN21,κN22]- [GC4716]
Mini-Pig BioA [5, 9]: 34%

The next lines start with results.

solubility in water (Solubility in water): relatively readily soluble in water | Mini-Pig BioA [5, 9]: 9% | Mini-Pig BioA ([5]; base oil Labrafil M2125 CS, 10% by weight): 7% | Mini-Pig BioA ([5]; base oil Maisine 35-1, 10% by weight): 8% | Mini-Pig BioA [5, 10]: 8% | Mini-Pig BioA ([5]; base oil Peceol, 10% by weight): 9%
Molecule: [Cl][Mn][Cl].c1cc2nc(c1)CN[C@H]1CCCC[C@@H]1NCCN[C@H]1CCCC[C@@H]1NC2 [GC4419, reference compound]
VEGFr inhibitor-induced pulmonary disease [7]: attenuate VEGFr inhibitor-induced pulmonary disease | oral mucositis [8]: reduce oral mucositis

Mini-Pig BioA [5, 9]: 23% | Mini-Pig BioA ([5]; base oil Peceol, 10% by weight): 24%
Molecule: Manganese(II)bis-racemic-2-phenylpropionato[(4aS,13aS,17aS,21aS)-1,2,3,4,4a,5,6,12,13,13a,14,15,16,17,17a,18,19,20,21,21a-Eicosahydro-11,7-nitrilo-7H-dibenzo[b,h][1,4,7,10]tetraazacycloheptadecine-κN5,κN13,κN18,κN21,κN22]- [GC4705]

Mini-Pig BioA [5, 9]: 26%
Molecule: Manganese(II)bis-racemic-phenylglycinato[(4aR,13aR,17aR,21aR)-1,2,3,4,4a,5,6,12,13,13a,14,15,16,17,17a,18,19,20,21,21a-Eicosahydro-11,7-nitrilo-7H-dibenzo[b,h][1,4,7,10]tetraazacycloheptadecine-κN5,κN13,κN18,κN21,κN22]- [GC4717]

Mini-Pig BioA [5, 9]: 33% | Mini-Pig BioA [5, 10]: 32%
Molecule: Manganese(II)bis-racemic-phenylglycinato[(4aS,13aS,17aS,21aS)-1,2,3,4,4a,5,6,12,13,13a,14,15,16,17,17a,18,19,20,21,21a-Eicosahydro-11,7-nitrilo-7H-dibenzo[b,h][1,4,7,10]tetraazacycloheptadecine-κN5,κN13,κN18,κN21,κN22]- [GC4720]
